Results: US8293682B2, “Growth regulators for gramineous weeds” (Rikengreen Co., Ltd., priority 2008, dated 2012)

Legend:
[1] = test system: annual bluegrass (Poa annua L.); assay: Test Example 1: number of ear emergence, poly-cup, single or mixed application; assay type: in vivo
Protocol: At the initial stage of the ear emergence of annual bluegrass (Poa annua L.) grown in a poly-cup of 11 cm×11 cm, benzyladenine (Beanine for painting; made by Rikengreen; containing 1% benzyladenine) and ethephon (Ethrel 10 soluble concentrate; Nissan Chemical Industries; containing 10% ethephon) respectively as a single active ingredient or a mixture of them were diluted in a predetermined amount of water and applied by atomization so as to be a dose as indicated in Table. The application was carried out using 100 mL/m^2 of the solution to which a spreader (Riken Sprayzer (registered trade mark); made by Rikengreen) was added so as to be 1/1,000 fold. Inspection was made on Days 21, 32 and 45 after treatment with the agents to count the number of ear emergence in the cup. After completion of each inspection, clipping was performed.

[2] = test system: annual bluegrass (Poa annua L.); assay: Test Example 3: number of emerged ears and leaves, poly-cup, two applications; assay type: in vivo; details: for Ear (number of emerged ears in the cup) / [Leaf] (number of leaves within 6 cm×6 cm): 2nd application after 29 days
Protocol: At the initial stage of the ear emergence of annual bluegrass (Poa annua L.) grown in a poly-cup of 11 cm×11 cm, benzyladenine (Beanine for painting; made by Rikengreen; containing 1% benzyladenine) and ethephon (Ethrel 10 soluble concentrate; Nissan Chemical Industries; containing 10% ethephon) were diluted in a predetermined amount of water, and a spreader (Riken Sprayzer (registered trade mark); made by Rikengreen) was added so as to be 1/1,000-fold concentration; the respectively diluted solutions were applied by atomization at a dose as indicated in Table (scattered solution: 200 mL/m^2), and after a lapse of 29 days, the 2nd application was carried out. Then, the number of emerged ears of annual bluegrass (Poa annua L.) in the cup was counted. Further, the number of leaves [Leaf] of annual bluegrass (Poa annua L.) was counted within the area of 6 cm×6 cm in the cup. The test was carried out serially. […] Dose means the amount at a single application.

[3] = test system: annual bluegrass (Poa annua L.); assay: Test Example 4: field test in bent green turf, emerged ear number; assay type: in vivo; details: applied Day 0 and after 30 days
Protocol: In a bent green turf where annual bluegrasses (Poa annua L.) were grown, a test zone of 1 m×1 m was provided. Benzyladenine (Beanine for painting; made by Rikengreen; containing 1% benzyladenine) and ethephon (Ethrel 10 soluble concentrate; Nissan Chemical Industries; containing 10% ethephon) were diluted in a predetermined amount of water, and a spreader (Riken Sprayzer (registered trade mark); made by Rikengreen) was added so as to be 1/1,000-fold concentration. The respectively diluted solutions were applied to each test zone at the first application (Day 0) at a dose as indicated in Table, and after a lapse of 30 days the second application was carried out. The amount of solution scattered was 100 mL/m^2 both in the first and second applications. The number of ear emergence of annual bluegrass (Poa annua L.) within the area of 10×10 cm was counted at regular intervals at 3 spots per zone. […] Dose means the amount at a single application.

[4] = test system: southern crabgrasses (Digitaria ciliaris Koel.); assay: Test Example 5: field test in Manilagrass turf, inhibitory effect for ear emergence; assay type: in vivo
Protocol: In a Manilagrass (Zoysia matrella) turf where southern crabgrasses (Digitaria ciliaris Koel.) were grown, a test zone of 1 m×1 m was provided. Benzyladenine (Beanine for painting; made by Rikengreen; containing 1% benzyladenine) and ethephon (Ethrel 10 soluble concentrate; Nissan Chemical Industries; containing 10% ethephon) were diluted in a predetermined amount of water. The respectively diluted solutions were applied to each test zone at the first application (Day 0) at a dose as indicated in Table, and after a lapse of 17 days the second application was carried out. The first application was conducted before the ear emergence of southern crabgrasses (Digitaria ciliaris Koel.). The amount of solution scattered was 150 mL/m^2 both in the first and second applications. The inhibitory effect for the ear emergence of southern crabgrasses (Digitaria ciliaris Koel.) within the area of 1 m×1 m was evaluated according to the standard as described in Table 7. […] The symbol “●” in Table 8 indicates the treatment with each agent, and “−” means untreated. Dose means the amount at a single application.

[5] = test system: lawn grasses; details: cited from earlier work
[6] = Day 46, Benzyladenine + Ethephon 2 + 0 mg a.i./m^2
[7] = Day 46, Benzyladenine + Ethephon 4 + 0 mg a.i./m^2

c1ccc(CNc2ncnc3nc[nH]c23)cc1 [Benzyladenine, 6-benzylaminopurine]
number of ear emergence in the cup ([1]; 21 Days after Application, Benzyladenine 2, Ethephon 0 mg a.i./m^2): 39
number of ear emergence in the cup ([1]; 21 Days after Application, Benzyladenine 4, Ethephon 0 mg a.i./m^2): 26
number of ear emergence in the cup ([1]; 21 Days after Application, Benzyladenine 8, Ethephon 0 mg a.i./m^2): 36
number of ear emergence in the cup ([1]; 21 Days after Application, Benzyladenine 12, Ethephon 0 mg a.i./m^2): 16
number of ear emergence in the cup ([1]; 21 Days after Application, Benzyladenine 16, Ethephon 0 mg a.i./m^2): 11
number of ear emergence in the cup ([1]; 32 Days after Application, Benzyladenine 2, Ethephon 0 mg a.i./m^2): 50
number of ear emergence in the cup ([1]; 32 Days after Application, Benzyladenine 4, Ethephon 0 mg a.i./m^2): 34
number of ear emergence in the cup ([1]; 32 Days after Application, Benzyladenine 8, Ethephon 0 mg a.i./m^2): 10
number of ear emergence in the cup ([1]; 32 Days after Application, Benzyladenine 12, Ethephon 0 mg a.i./m^2): 9
number of ear emergence in the cup ([1]; 32 Days after Application, Benzyladenine 16, Ethephon 0 mg a.i./m^2): 6
number of ear emergence in the cup ([1]; 45 Days after Application, Benzyladenine 2, Ethephon 0 mg a.i./m^2): 71
number of ear emergence in the cup ([1]; 45 Days after Application, Benzyladenine 4, Ethephon 0 mg a.i./m^2): 71
number of ear emergence in the cup ([1]; 45 Days after Application, Benzyladenine 8, Ethephon 0 mg a.i./m^2): 67
number of ear emergence in the cup ([1]; 45 Days after Application, Benzyladenine 12, Ethephon 0 mg a.i./m^2): 55
number of ear emergence in the cup ([1]; 45 Days after Application, Benzyladenine 16, Ethephon 0 mg a.i./m^2): 45
inhibition of ear emergence (summary in words) ([1]; Test Example 1, Tables 1-3): effective in inhibiting the ear emergence
Ear (number of emerged ears in the cup) ([2]; Day 23, Benzyladenine + Ethephon 2 + 0 mg a.i./m^2): 12
Ear (number of emerged ears in the cup) ([2]; Day 23, Benzyladenine + Ethephon 4 + 0 mg a.i./m^2): 2
Ear (number of emerged ears in the cup) [2, 6]: 54
[Leaf] (number of leaves within 6 cm×6 cm) [2, 6]: [105]
Ear (number of emerged ears in the cup) [2, 7]: 55
[Leaf] (number of leaves within 6 cm×6 cm) [2, 7]: [108]
Ear (number of emerged ears in the cup) ([2]; Day 53, Benzyladenine + Ethephon 2 + 0 mg a.i./m^2): 43
Ear (number of emerged ears in the cup) ([2]; Day 53, Benzyladenine + Ethephon 4 + 0 mg a.i./m^2): 48
inhibition of ear emergence (summary in words) ([2]; Test Example 3): strongly inhibits the ear emergence
number of leaves (bud number) (summary in words) ([2]; Test Example 3): increases the number of leaves
Ear (mean emerged ear number within 10×10 cm) ([3]; Day 22, Ethephon 0, Benzyladenine 4 mg a.i./m^2): 62.3
Ear (mean emerged ear number within 10×10 cm) ([3]; Day 22, Ethephon 0, Benzyladenine 8 mg a.i./m^2): 34.3
Ear (mean emerged ear number within 10×10 cm) ([3]; Day 22, Ethephon 0, Benzyladenine 12 mg a.i./m^2): 27.0
Ear (mean emerged ear number within 10×10 cm) ([3]; Day 41, Ethephon 0, Benzyladenine 4 mg a.i./m^2): 150.3
Ear (mean emerged ear number within 10×10 cm) ([3]; Day 41, Ethephon 0, Benzyladenine 8 mg a.i./m^2): 59.7
Ear (mean emerged ear number within 10×10 cm) ([3]; Day 41, Ethephon 0, Benzyladenine 12 mg a.i./m^2): 32.7
Ear (mean emerged ear number within 10×10 cm) ([3]; Day 61, Ethephon 0, Benzyladenine 4 mg a.i./m^2): 107.0
Ear (mean emerged ear number within 10×10 cm) ([3]; Day 61, Ethephon 0, Benzyladenine 8 mg a.i./m^2): 53.0
Ear (mean emerged ear number within 10×10 cm) ([3]; Day 61, Ethephon 0, Benzyladenine 12 mg a.i./m^2): 41.0
Evaluation: index of inhibitory effect for ear emergence ([4]; Day 18, Benzyladenine 2.5 mg a.i./m^2, applied Day 0): 0 (0% or more-less than 10%)
Evaluation: index of inhibitory effect for ear emergence ([4]; Day 18, Benzyladenine 5 mg a.i./m^2, applied Day 0): 0 (0% or more-less than 10%)
Evaluation: index of inhibitory effect for ear emergence ([4]; Day 18, Benzyladenine 10 mg a.i./m^2, applied Day 0): 2 (20% or more-less than 30%)
Evaluation: index of inhibitory effect for ear emergence ([4]; Day 18, Benzyladenine 15 mg a.i./m^2, applied Day 0): 10 (100%)
Evaluation: index of inhibitory effect for ear emergence ([4]; Day 26, Benzyladenine 2.5 mg a.i./m^2, applied Day 0): 0 (0% or more-less than 10%)
Evaluation: index of inhibitory effect for ear emergence ([4]; Day 26, Benzyladenine 2.5 mg a.i./m^2, applied Day 0 and Day 17): 1 (10% or more-less than 20%)
Evaluation: index of inhibitory effect for ear emergence ([4]; Day 26, Benzyladenine 5 mg a.i./m^2, applied Day 0): 0 (0% or more-less than 10%)
Evaluation: index of inhibitory effect for ear emergence ([4]; Day 26, Benzyladenine 5 mg a.i./m^2, applied Day 0 and Day 17): 2 (20% or more-less than 30%)
Evaluation: index of inhibitory effect for ear emergence ([4]; Day 26, Benzyladenine 10 mg a.i./m^2, applied Day 0): 2 (20% or more-less than 30%)
Evaluation: index of inhibitory effect for ear emergence ([4]; Day 26, Benzyladenine 10 mg a.i./m^2, applied Day 0 and Day 17): 6 (60% or more-less than 70%)
Evaluation: index of inhibitory effect for ear emergence ([4]; Day 26, Benzyladenine 15 mg a.i./m^2, applied Day 0): 9 (90% or more-less than 100%)
Evaluation: index of inhibitory effect for ear emergence ([4]; Day 26, Benzyladenine 15 mg a.i./m^2, applied Day 0 and Day 17): 10 (100%)
Evaluation: index of inhibitory effect for ear emergence ([4]; Day 33, Benzyladenine 2.5 mg a.i./m^2, applied Day 0): 0 (0% or more-less than 10%)
Evaluation: index of inhibitory effect for ear emergence ([4]; Day 33, Benzyladenine 2.5 mg a.i./m^2, applied Day 0 and Day 17): 3 (30% or more-less than 40%)
Evaluation: index of inhibitory effect for ear emergence ([4]; Day 33, Benzyladenine 5 mg a.i./m^2, applied Day 0): 1 (10% or more-less than 20%)
Evaluation: index of inhibitory effect for ear emergence ([4]; Day 33, Benzyladenine 5 mg a.i./m^2, applied Day 0 and Day 17): 3 (30% or more-less than 40%)
Evaluation: index of inhibitory effect for ear emergence ([4]; Day 33, Benzyladenine 10 mg a.i./m^2, applied Day 0): 5 (50% or more-less than 60%)
Evaluation: index of inhibitory effect for ear emergence ([4]; Day 33, Benzyladenine 10 mg a.i./m^2, applied Day 0 and Day 17): 7 (70% or more-less than 80%)
Evaluation: index of inhibitory effect for ear emergence ([4]; Day 33, Benzyladenine 15 mg a.i./m^2, applied Day 0): 7 (70% or more-less than 80%)
Evaluation: index of inhibitory effect for ear emergence ([4]; Day 33, Benzyladenine 15 mg a.i./m^2, applied Day 0 and Day 17): 8 (80% or more-less than 90%)
Evaluation: index of inhibitory effect for ear emergence ([4]; Day 41, Benzyladenine 2.5 mg a.i./m^2, applied Day 0): 0 (0% or more-less than 10%)
Evaluation: index of inhibitory effect for ear emergence ([4]; Day 41, Benzyladenine 2.5 mg a.i./m^2, applied Day 0 and Day 17): 1 (10% or more-less than 20%)
Evaluation: index of inhibitory effect for ear emergence ([4]; Day 41, Benzyladenine 5 mg a.i./m^2, applied Day 0): 2 (20% or more-less than 30%)
Evaluation: index of inhibitory effect for ear emergence ([4]; Day 41, Benzyladenine 5 mg a.i./m^2, applied Day 0 and Day 17): 5 (50% or more-less than 60%)
Evaluation: index of inhibitory effect for ear emergence ([4]; Day 41, Benzyladenine 10 mg a.i./m^2, applied Day 0): 2 (20% or more-less than 30%)
Evaluation: index of inhibitory effect for ear emergence ([4]; Day 41, Benzyladenine 10 mg a.i./m^2, applied Day 0 and Day 17): 6 (60% or more-less than 70%)
Evaluation: index of inhibitory effect for ear emergence ([4]; Day 41, Benzyladenine 15 mg a.i./m^2, applied Day 0): 4 (40% or more-less than 50%)
Evaluation: index of inhibitory effect for ear emergence ([4]; Day 41, Benzyladenine 15 mg a.i./m^2, applied Day 0 and Day 17): 8 (80% or more-less than 90%)
rooting of lawn grasses ([5]; Non-patent document 1): effect for accelerating the rooting of lawn grasses
growth of lawn grasses ([5]; Patent document 1): effect for accelerating the growth of lawn grasses
